Measurements as given in ChEMBL document CHEMBL1150047, “New sesquiterpene quinols from a Micronesian sponge, Aka sp” (J Nat Prod, 2003).
Counter-ions that a name gives are not always drawn. Active and inactive are the calls of the source. The rule behind the calls is not given here.

Columns and labels:
[1] = molecular target: Cyclin-dependent kinase 4/cyclin D1 (Homo sapiens) (UniProt P11802+P24385); assay: Inhibition of CDK4/Cyclin D1 complex formation at 10 ug/mL; format: protein-complex assay
[2] = molecular target: Cyclin-dependent kinase 4/cyclin D1 (Homo sapiens, UniProt P11802); assay: Inhibition of CDK4/Cyclin D1 complex formation
Chain of Cyclin-dependent kinase 4/cyclin D1 (P11802 whole entry): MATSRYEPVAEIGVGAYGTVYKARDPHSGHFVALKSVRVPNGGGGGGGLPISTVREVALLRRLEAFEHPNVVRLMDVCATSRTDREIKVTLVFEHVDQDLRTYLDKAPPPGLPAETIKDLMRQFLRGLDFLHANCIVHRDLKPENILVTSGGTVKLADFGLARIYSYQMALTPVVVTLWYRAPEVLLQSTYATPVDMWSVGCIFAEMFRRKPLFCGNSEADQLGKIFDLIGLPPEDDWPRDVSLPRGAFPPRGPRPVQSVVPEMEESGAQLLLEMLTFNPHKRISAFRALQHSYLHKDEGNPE
Chain of Cyclin-dependent kinase 4/cyclin D1 (P24385 whole entry, further chain): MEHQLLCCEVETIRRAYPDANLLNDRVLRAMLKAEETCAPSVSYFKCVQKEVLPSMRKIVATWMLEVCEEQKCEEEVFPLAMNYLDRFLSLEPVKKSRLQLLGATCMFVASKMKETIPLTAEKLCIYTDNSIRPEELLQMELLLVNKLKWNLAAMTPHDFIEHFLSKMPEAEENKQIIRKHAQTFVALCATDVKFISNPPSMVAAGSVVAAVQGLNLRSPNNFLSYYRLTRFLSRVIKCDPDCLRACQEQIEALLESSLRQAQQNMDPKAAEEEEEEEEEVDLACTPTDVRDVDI

| IC50 [2] [µM] | SMILES | Activity [1] |
| --- | --- | --- |
|  | CC1(C)CCC[C@]2(C)[C@@H](Cc3c(O)ccc(O)c3C=O)[C@](C)(O)CC[C@@H]12 | inactive |
|  | COCc1cc(O)c(O)c2c1[C@@]1(C)CC[C@H]3C(C)(C)CCC[C@]3(C)[C@H]1C2 | inactive |
| 12.6 | CC(CC[C@@H](C)[C@H]1CC[C@H]2[C@@H]3C[C@H](OS(=O)(=O)O)[C@H]4C[C@H](OS(=O)(=O)O)[C@@H](OS(=O)(=O)O)C[C@]4(C)[C@H]3CC[C@]12C)C(C)(C)C (some centres undefined) [HALISTANOL SULFATE] |  |
| 19.5 | CC1=CC[C@H]2C(C)(C)CCC[C@]2(C)[C@H]1Cc1cc(O)c(O)c(C=O)c1OS(=O)(=O)O [SIPHONODICTYAL C] |  |
